According to patent US3933859A, “Dihydrocoumarin derivatives” (Hoffmann-La Roche, Inc., priority 1970, dated 1976):
Where a name gives a salt, the structure may show the parent alone.

What was measured:
[1] = LD50 of the hydrochloride; conditions: in vivo
Description: (§1) The novel compounds of formulae VII and VIII and their salts are useful for lowering the blood-pressure and for chemical sympathectomy. Thus, for example, after orally administering five separate doses each comprising 300 μmol/kg of L-6,7-diacetoxy-3-amino-hydrocoumarin hydrochloride to rats over a period of 48 hours, the noradrenaline content is lowered in the heart to 28% and in the brain to 85% of the controls. The LD50 of this hydrochloride amounts to 30-60 mg/kg i.v., 250-500 mg/kg s.c. and 1,000-2,000 mg/kg p.o.

[2] = test system: noradrenaline; assay: noradrenaline content lowering after oral administration to rats; assay type: in vivo, rat; conditions: five separate oral doses each 300 μmol/kg over 48 hours
Description: as §1

CC(=O)Oc1cc2c(cc1OC(C)=O)OC(=O)[C@@H](N)C2 [L-6,7-diacetoxy-3-aminohydrocoumarin hydrochloride]
LD50 ([1]; iv): 30 to 60 mg/kg
LD50 ([1]; po): 1000 to 2000 mg/kg
LD50 ([1]; sc): 250 to 500 mg/kg
noradrenaline content in the brain, lowered to % of the controls ([2]; brain): 85%
noradrenaline content in the heart, lowered to % of the controls ([2]; heart): 28%
